Results published in patent US10369134B2, “Nonracemic mixtures and uses thereof” (Sunovion Pharmaceuticals Inc., priority 2017, dated 2019).

Legend:
Format in all cases: in vivo
[1] = system: healthy subjects; experiment: REM suppression polysomnography (PSG) study of (R)-amisulpride; settings: human; for decrease in the time spent in REM sleep / reduction of the portion of the night spent in REM: range is 90% confidence interval
Protocol: REM suppression was the biomarker used to determine clinically-significant levels of 5-HT7 antagonism and its pharmacodynamics. REM suppression was assessed by total time in minutes spent in REM sleep and by the latency in minutes to REM sleep. […] REM suppression in human volunteers is an established translational biomarker useful to identify doses for antidepressant effects in patients.
The primary endpoint was REM sleep suppression as determined at post dose time points in the measures of latency to REM sleep, REM sleep time in minutes, and percent decrease in REM sleep time relative to total sleep time.
The results presented in Tables 6A-6C were determined from an analysis of the date based on a linear mixed model with terms for treatment, period, and treatment sequence as fixed effects, respective baseline PSG value as a continuous covariate, and treatment-by-baseline PSG interaction, and subject nested within sequence as a random effect, the Kenward and Roger correction for the degrees of freedom and an unstructured covariance structure to model the intrasubject correlation. The abbreviations used in Tables 6A-6C are as follows: PSG=polysomnography; CI=confidence interval; LS=least-squares; REM=rapid eye movement; SE=standard error.

[2] = system: freely moving rats; experiment: Sleep study of 85:15 (R:S-amisulpride) and racemic amisulpride (EEG/EMG); settings: rat, p.o., R-amisulpride content of the total dose
Protocol: Groups in this study were as follows. Test compound was administered to rats in a cross-over design.
Vehicle or fixed ratio amisulpride dosing solutions were orally administered 10 min before the beginning of light phase (light phase: 10:00 AM to 10:00 PM). The individual dosing volume was 4 mL/kg. The individual dosing volume was calculated based on the animals' body weight measured on each experimental day. At least 1-week wash-out period after each treatment was provided.
The R-amisulpride and S-amisulpride were separately weighed. […]
A radio transmitter was implanted intraperitoneally in each anesthetized animal (sodium pentobarbital, 32.4 mg/kg, i.p. and medetomidine hydrochloride, 0.5 mg/kg, i.p.). […] Electromyograms (EMG) were recorded from the dorsal neck muscle. […] EEG/EMG was recorded in the home cages in a soundproof box using Dataquest A.R.T. software (Data Science International, New Brighton, Minn., USA) at a sampling rate of 500 Hz. […]
All data were expressed as a mean±SEM. Difference between 85/15 and 50/50 amisulpride at each dose in each sleep architecture (i.e. REM sleep duration, NREM sleep duration, and WAKE duration) during the first 4 hours after administration were assessed by a repeated measures one-way ANOVA, followed by post-hoc Bonferroni multiple comparison test. […]

[3] = system: rat; experiment: Forced Swim test; settings: 0.5 mg/kg i.p. at 24, 5 and 1 h before swim test, mean ± SE, vehicle 168±12
Protocol: The Forced Swim test (FST) is an indicator of the antidepressant-like activity of a test compound. The rat will swim before “giving up” and becoming immobile. A compound with antidepressant-like activity will decrease the time the rat is immobile.
The animals (n=90) were divided into five groups. […] In the training session, each animal was gently placed into the plastic cylinder containing 5.8 L of water set at 25±1° C. Fifteen minutes after the beginning of the training session, the animal was removed from the water. The dosing solutions were administered 15 minutes after finishing of the training.
The swim test was performed for 5 minutes in the same manner as the training session. In the swim test, the behavior of each animal was horizontally recorded using a video camera. After the swim test, animals were immediately sacrificed by inhalation of carbon dioxide.
The swim movies were handled in a blind manner to ensure that the person who measured the immobility time had no information on the treatment. An animal was judged to be immobile whenever it remained floating in the water without moving its body or forepaws except for the slight movement to maintain its posture. The total time for which the animal remained immobile was defined as the immobility time. An observer blinded to the doses measured the immobility times. The immobility time of each animal was measured to one decimal place and rounded to a whole number. Immobility time was expressed in units of seconds. In each series the means of immobility time were calculated and rounded to a whole number using. The mean and standard error (SE) for each group were calculated using the data obtained from three experimental series and rounded to a whole number. All results are represented as the mean±SE.
The data of imipramine were analyzed using t-test with a two-sided significance level of 5% (p<0.05).

In the case of `CCN1CCC[C@@H]1CNC(=O)c1cc(S(=O)(=O)CC)c(N)cc1OC` [(R)-amisulpride, R-4-Amino-N-[(1-ethyl-2-pyrrolidinyl)methyl]-5-(ethylsulfonyl)-2-methoxybenzamide], the “decrease in REM sleep” value ([1]; 340 mg (FIG. 15C)) is reported as “about 20 minutes”, the “decrease in REM sleep” value ([1]; 600 mg (FIG. 15C)) is reported as “about 30 minutes” and the “subjects who reported adverse events” value ([1]; of the 13 subjects dosed with 600 mg) is reported as 3 subjects. The “suppression of REM sleep” value ([1]; single dose 600 mg) was “clinically meaningful and statistically significant suppression of REM sleep”, the “vital signs and ECGs” value ([1]; single oral dose) was “normal” and the “Latency to REM Sleep, LS Mean Difference (SE) from placebo” value ([1]; single oral dose 340 mg, n=20) was 28.23 (9.82) Minutes. For the same compound, the “REM Percent, LS Mean Difference (SE) from placebo” value ([1]; single oral dose 340 mg, n=20) was −4.15 (1.09) %, the “REM Time, LS Mean Difference (SE) from placebo” value ([1]; single oral dose 340 mg, n=20) was −18.45 (4.91) Minutes and the “REM Percent, LS Mean (SE)” value ([1]; single oral dose 340 mg, n=20, placebo 25.69 (0.92)) was 21.55 (0.92) %. For the same compound, the “Latency to REM Sleep, LS Mean (SE)” value ([1]; single oral dose 340 mg, n=20, placebo 77.03 (9.42)) was 105.25 (9.42) Minutes, the “REM Time, LS Mean (SE)” value ([1]; single oral dose 340 mg, n=20, placebo 110.05 (4.69)) was 91.60 (4.69) Minutes and the “decrease in the time spent in REM sleep” value ([1]; single oral dose 340 mg) was 10 to 27 min. For the same compound, the “reduction of the portion of the night spent in REM” value ([1]; single oral dose 340 mg) was 2-6 percentage points, the “Latency to REM Sleep, LS Mean Difference (SE) from placebo” value ([1]; single oral dose 600 mg, n=13) was 20.30 (9.39) Minutes and the “REM Percent, LS Mean Difference (SE) from placebo” value ([1]; single oral dose 600 mg, n=13) was −6.24 (1.45) %. For the same compound, the “REM Time, LS Mean Difference (SE) from placebo” value ([1]; single oral dose 600 mg, n=13) was −31.39 (7.99) Minutes, the “REM Percent, LS Mean (SE)” value ([1]; single oral dose 600 mg, n=13, placebo 24.30 (1.14)) was 18.06 (1.14) % and the “Latency to REM Sleep, LS Mean (SE)” value ([1]; single oral dose 600 mg, n=13, placebo 89.06 (7.71)) was 109.35 (7.71) Minutes. For the same compound, the “REM Time, LS Mean (SE)” value ([1]; single oral dose 600 mg, n=13, placebo 107.98 (5.65)) was 76.59 (5.65) Minutes, the “decrease in the time spent in REM sleep” value ([1]; single oral dose 600 mg) was 18 to 45 min and the “reduction of the portion of the night spent in REM” value ([1]; single oral dose 600 mg) was 4-9 percentage points. For the same compound, the “tolerability” value ([1]; single oral dose 340 or 600 mg) was “well tolerated”, the “dose of R-amisulpride at which REM sleep suppression was saturated” value [2] was ≥ 50 mg/kg and the immobility time [3] was 124 ± 12 s.
